{"source": "ChEMBL document CHEMBL6134849", "about": "“A Water-Soluble Aggregation-Induced Emission Photosensitizer with Intrinsic Antibacterial Activity as an Antiplanktonic and Antibiofilm Therapeutic Agent” (J Med Chem, 2025)", "key": {"[1]": {"experiment": "Induction of type-I ROS generation in PBS assessed as increase in nonspecific ROS by measuring increase in DHR123 fluorescence intensity at 10 uM irradiated with 660 nm 60 mW/cm2 light for 15 mins by DHR123 probe based plate reader analysis", "assay_type": "functional"}, "[2]": {"experiment": "Induction of type-II ROS generation in PBS assessed as increase in nonspecific ROS by measuring increase in DHR123 fluorescence intensity at 10 uM irradiated with 660 nm 60 mW/cm2 light for 15 mins by DHR123 probe based plate reader analysis", "assay_type": "functional"}, "[3]": {"experiment": "Induction of type-I ROS generation in PBS assessed as increase in hydroxyl radical by measuring increase in HPF fluorescence intensity at 10 uM irradiated with 660 nm 60 mW/cm2 light for 15 mins by HPF probe based plate reader analysis", "assay_type": "functional"}, "[4]": {"experiment": "Induction of […] ROS generation in PBS assessed as increase in hydroxyl radical by measuring increase in HPF fluorescence intensity at 10 uM irradiated with 660 nm 60 mW/cm2 light for 15 mins by HPF probe based plate reader analysis", "assay_type": "functional"}, "[5]": {"experiment": "Induction of type-I ROS generation in PBS assessed as increase in singlet oxygen by measuring increase in SOSG fluorescence intensity at 10 uM irradiated with 660 nm 60 mW/cm2 light for 15 mins by SOSG probe based plate reader analysis", "assay_type": "functional"}, "[6]": {"experiment": "Induction of type-II ROS generation in PBS assessed as increase in singlet oxygen by measuring increase in SOSG fluorescence intensity at 10 uM irradiated with 660 nm 60 mW/cm2 light for 15 mins by SOSG probe based plate reader analysis", "assay_type": "functional"}, "Pseudomonas aeruginosa": {"test_system": "Pseudomonas aeruginosa", "experiment": "Antibacterial activity against Pseudomonas aeruginosa ATCC 27853 in presence of Muller-Hinton medium by broth microdilution method", "assay_type": "functional"}, "Staphylococcus aureus [7]": {"test_system": "Staphylococcus aureus", "experiment": "Antibacterial activity against Staphylococcus aureus at 6.25 uM measured within 2 hrs in absence of light irradiation by time-kill kinetics assay relative to control", "assay_type": "functional"}, "Staphylococcus aureus [8]": {"test_system": "Staphylococcus aureus", "experiment": "Antibiofilm activity against Staphylococcus aureus assessed as mature biofilm eradication incubated for 24 hrs under dark condition in absence of light irradiation by crystal violet staining based analysis", "assay_type": "functional, organism-based"}, "Cell membrane [9]": {"test_system": "Cell membrane", "experiment": "Induction of cell membrane depolarization in Staphylococcus aureus assessed as increase in fluorescence intensity in absence of light irradiation by Disc3(5) dye based fluorescence assay", "assay_type": "subcellular"}, "Cell membrane [10]": {"test_system": "Cell membrane", "experiment": "Induction of cell membrane damage in Staphylococcus aureus at 12.5 to 25 uM incubated for 3 hrs under dark condition by scanning electron microscopic analysis", "assay_type": "subcellular", "conditions": "dose 12.5-25 µM"}, "[11]": {"molecular_target": "T1, DNA gyrase (Staphylococcus aureus) (UniProt P0A0K8+P20831)", "T1 sequence (P0A0K8 2-644 limits assumed)": "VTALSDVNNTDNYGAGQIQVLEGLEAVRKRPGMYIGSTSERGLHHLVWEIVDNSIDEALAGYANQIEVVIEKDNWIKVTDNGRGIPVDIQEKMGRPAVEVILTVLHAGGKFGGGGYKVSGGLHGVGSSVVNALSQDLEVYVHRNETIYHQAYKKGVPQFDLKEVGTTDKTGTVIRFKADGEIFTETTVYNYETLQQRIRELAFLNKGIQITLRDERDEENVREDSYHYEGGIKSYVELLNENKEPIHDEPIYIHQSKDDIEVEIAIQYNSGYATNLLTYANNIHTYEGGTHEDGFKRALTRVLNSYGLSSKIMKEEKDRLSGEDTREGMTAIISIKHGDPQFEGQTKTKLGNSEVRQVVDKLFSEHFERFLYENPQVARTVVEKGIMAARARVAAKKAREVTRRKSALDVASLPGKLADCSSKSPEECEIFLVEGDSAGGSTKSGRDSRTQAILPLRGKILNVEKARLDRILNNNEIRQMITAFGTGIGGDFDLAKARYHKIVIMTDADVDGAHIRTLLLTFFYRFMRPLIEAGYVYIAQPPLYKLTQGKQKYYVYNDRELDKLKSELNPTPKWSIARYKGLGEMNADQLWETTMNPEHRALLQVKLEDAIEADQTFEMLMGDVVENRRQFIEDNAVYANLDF", "T1 sequence (P20831 whole entry partner)": "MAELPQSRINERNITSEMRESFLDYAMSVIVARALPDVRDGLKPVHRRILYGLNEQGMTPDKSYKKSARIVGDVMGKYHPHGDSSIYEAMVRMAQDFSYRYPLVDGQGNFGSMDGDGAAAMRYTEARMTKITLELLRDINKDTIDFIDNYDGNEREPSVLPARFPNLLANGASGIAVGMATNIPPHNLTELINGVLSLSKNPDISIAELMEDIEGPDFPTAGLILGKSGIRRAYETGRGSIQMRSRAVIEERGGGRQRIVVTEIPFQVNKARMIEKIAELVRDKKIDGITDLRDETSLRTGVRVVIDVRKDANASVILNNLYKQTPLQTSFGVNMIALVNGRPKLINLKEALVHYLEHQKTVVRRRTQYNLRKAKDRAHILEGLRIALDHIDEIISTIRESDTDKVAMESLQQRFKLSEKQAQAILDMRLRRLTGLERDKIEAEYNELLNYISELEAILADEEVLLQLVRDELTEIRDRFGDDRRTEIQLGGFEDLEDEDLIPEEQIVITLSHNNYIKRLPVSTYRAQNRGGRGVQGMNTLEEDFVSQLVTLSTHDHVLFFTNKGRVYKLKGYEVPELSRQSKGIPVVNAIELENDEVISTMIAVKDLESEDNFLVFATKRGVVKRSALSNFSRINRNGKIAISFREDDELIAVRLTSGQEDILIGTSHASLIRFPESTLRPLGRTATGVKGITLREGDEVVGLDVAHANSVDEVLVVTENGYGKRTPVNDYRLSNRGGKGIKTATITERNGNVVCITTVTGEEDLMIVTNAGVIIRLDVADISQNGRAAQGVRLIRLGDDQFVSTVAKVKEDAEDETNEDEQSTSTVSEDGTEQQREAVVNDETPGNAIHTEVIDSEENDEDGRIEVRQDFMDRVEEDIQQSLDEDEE", "experiment": "Inhibition of Staphylococcus aureus DNA gyrase supercoiling using relaxed pBR322 as substrate at 3.125 to 25 uM incubated for 30 mins in absence of light irradiation by gel based method", "assay_type": "protein-complex assay", "conditions": "dose 3.125-25 µM"}, "[12]": {"molecular_target": "T1, DNA gyrase (Staphylococcus aureus)", "experiment": "Inhibition of Staphylococcus aureus DNA gyrase supercoiling assessed as decrease in supercoiled DNA band intensity using relaxed pBR322 as substrate at 25 uM incubated for 30 mins in absence of light irradiation by gel based method", "assay_type": "protein-complex assay"}, "Staphylococcus aureus [13]": {"test_system": "Staphylococcus aureus", "experiment": "Downregulation of div1B expression level in Staphylococcus aureus at 6.25 uM incubated for 1 hr in absence of light irradiation", "assay_type": "functional"}, "Staphylococcus aureus [14]": {"test_system": "Staphylococcus aureus", "experiment": "Downregulation of ftsA expression level in Staphylococcus aureus at 6.25 uM incubated for 1 hr in absence of light irradiation", "assay_type": "functional"}, "Staphylococcus aureus [15]": {"test_system": "Staphylococcus aureus", "experiment": "Downregulation of sepF expression level in Staphylococcus aureus at 6.25 uM incubated for 1 hr in absence of light irradiation", "assay_type": "functional"}, "Staphylococcus aureus [16]": {"test_system": "Staphylococcus aureus", "experiment": "Downregulation of sle1 expression level in Staphylococcus aureus at 6.25 uM incubated for 1 hr in absence of light irradiation", "assay_type": "functional"}, "Staphylococcus aureus [17]": {"test_system": "Staphylococcus aureus", "experiment": "Downregulation of spoVG expression level in Staphylococcus aureus at 6.25 uM incubated for 1 hr in absence of light irradiation", "assay_type": "functional"}, "Staphylococcus aureus [18]": {"test_system": "Staphylococcus aureus", "experiment": "Downregulation of ftsZ expression level in Staphylococcus aureus at 6.25 uM incubated for 1 hr in absence of light irradiation", "assay_type": "functional"}, "Staphylococcus aureus [19]": {"test_system": "Staphylococcus aureus", "experiment": "Downregulation of lytH expression level in Staphylococcus aureus at 6.25 uM incubated for 1 hr in absence of light irradiation", "assay_type": "functional"}, "Staphylococcus aureus [20]": {"test_system": "Staphylococcus aureus", "experiment": "Downregulation of engB expression level in Staphylococcus aureus at 6.25 uM incubated for 1 hr in absence of light irradiation", "assay_type": "functional"}, "Staphylococcus aureus [21]": {"test_system": "Staphylococcus aureus", "experiment": "Downregulation of murC expression level in Staphylococcus aureus at 6.25 uM incubated for 1 hr in absence of light irradiation", "assay_type": "functional"}, "Staphylococcus aureus [22]": {"test_system": "Staphylococcus aureus", "experiment": "Downregulation of femX expression level in Staphylococcus aureus at 6.25 uM incubated for 1 hr in absence of light irradiation", "assay_type": "functional"}, "Staphylococcus aureus [23]": {"test_system": "Staphylococcus aureus", "experiment": "Downregulation of murB expression level in Staphylococcus aureus at 6.25 uM incubated for 1 hr in absence of light irradiation", "assay_type": "functional"}, "Staphylococcus aureus [24]": {"test_system": "Staphylococcus aureus", "experiment": "Downregulation of murF expression level in Staphylococcus aureus at 6.25 uM incubated for 1 hr in absence of light irradiation", "assay_type": "functional"}, "Staphylococcus aureus [25]": {"test_system": "Staphylococcus aureus", "experiment": "Downregulation of murG expression level in Staphylococcus aureus at 6.25 uM incubated for 1 hr in absence of light irradiation", "assay_type": "functional"}, "Staphylococcus aureus [26]": {"test_system": "Staphylococcus aureus", "experiment": "Downregulation of glmM expression level in Staphylococcus aureus at 6.25 uM incubated for 1 hr in absence of light irradiation", "assay_type": "functional"}, "Staphylococcus aureus [27]": {"test_system": "Staphylococcus aureus", "experiment": "Downregulation of uppP expression level in Staphylococcus aureus at 6.25 uM incubated for 1 hr in absence of light irradiation", "assay_type": "functional"}, "Staphylococcus aureus [28]": {"test_system": "Staphylococcus aureus", "experiment": "Downregulation of murI expression level in Staphylococcus aureus at 6.25 uM incubated for 1 hr in absence of light irradiation", "assay_type": "functional"}, "Staphylococcus aureus [29]": {"test_system": "Staphylococcus aureus", "experiment": "Downregulation of serS expression level in Staphylococcus aureus at 6.25 uM incubated for 1 hr in absence of light irradiation", "assay_type": "functional"}, "Staphylococcus aureus [30]": {"test_system": "Staphylococcus aureus", "experiment": "Downregulation of ddl expression level in Staphylococcus aureus at 6.25 uM incubated for 1 hr in absence of light irradiation", "assay_type": "functional"}, "Staphylococcus aureus [31]": {"test_system": "Staphylococcus aureus", "experiment": "Downregulation of murD expression level in Staphylococcus aureus at 6.25 uM incubated for 1 hr in absence of light irradiation", "assay_type": "functional"}, "Staphylococcus aureus [32]": {"test_system": "Staphylococcus aureus", "experiment": "Downregulation of femB expression level in Staphylococcus aureus at 6.25 uM incubated for 1 hr in absence of light irradiation", "assay_type": "functional"}, "Staphylococcus aureus [33]": {"test_system": "Staphylococcus aureus", "experiment": "Downregulation of alr1 expression level in Staphylococcus aureus at 6.25 uM incubated for 1 hr in absence of light irradiation", "assay_type": "functional"}}, "note": "Calls of active or inactive are those of the source. No cut-off for these calls is given here."}
{"smiles": "C#CCC[n+]1c(/C=C/c2ccc(-c3ccc(N(c4ccc(OCCC[N+](C)(C)C)cc4)c4ccc(OCCC[N+](C)(C)C)cc4)cc3)s2)sc2ccccc21.[Br-].[Br-].[Br-]", "values": [{"measurement": "Activity", "setting": "[1]", "result": "Active"}, {"measurement": "Activity", "setting": "[2]", "result": "Active"}, {"measurement": "Activity", "setting": "[3]", "result": "Active"}, {"measurement": "Activity", "setting": "[4]", "result": "Active"}, {"measurement": "Activity", "setting": "[5]", "result": "Active"}, {"measurement": "Activity", "setting": "[6]", "result": "Active"}, {"measurement": "MIC", "setting": "Pseudomonas aeruginosa", "result": "≤ 100", "unit": "µM"}, {"measurement": "Activity", "setting": "Staphylococcus aureus [7]", "result": 100, "unit": "%"}, {"measurement": "Activity", "setting": "Staphylococcus aureus [8]", "result": "Active"}, {"measurement": "Activity", "setting": "Cell membrane [9]", "result": "Dose-dependent-effect"}, {"measurement": "Activity", "setting": "Cell membrane [10]", "result": "Active"}, {"measurement": "inhibition", "setting": "[11]", "result": "Active"}, {"measurement": "inhibition", "setting": "[12]", "result": "Active"}, {"measurement": "Activity", "setting": "Staphylococcus aureus [13]", "result": "Active"}, {"measurement": "Activity", "setting": "Staphylococcus aureus [14]", "result": "Active"}, {"measurement": "Activity", "setting": "Staphylococcus aureus [15]", "result": "Active"}, {"measurement": "Activity", "setting": "Staphylococcus aureus [16]", "result": "Active"}, {"measurement": "Activity", "setting": "Staphylococcus aureus [17]", "result": "Active"}, {"measurement": "Activity", "setting": "Staphylococcus aureus [18]", "result": "Active"}, {"measurement": "Activity", "setting": "Staphylococcus aureus [19]", "result": "Active"}, {"measurement": "Activity", "setting": "Staphylococcus aureus [20]", "result": "Active"}, {"measurement": "Activity", "setting": "Staphylococcus aureus [21]", "result": "Active"}, {"measurement": "Activity", "setting": "Staphylococcus aureus [22]", "result": "Active"}, {"measurement": "Activity", "setting": "Staphylococcus aureus [23]", "result": "Active"}, {"measurement": "Activity", "setting": "Staphylococcus aureus [24]", "result": "Active"}, {"measurement": "Activity", "setting": "Staphylococcus aureus [25]", "result": "Active"}, {"measurement": "Activity", "setting": "Staphylococcus aureus [26]", "result": "Active"}, {"measurement": "Activity", "setting": "Staphylococcus aureus [27]", "result": "Active"}, {"measurement": "Activity", "setting": "Staphylococcus aureus [28]", "result": "Active"}, {"measurement": "Activity", "setting": "Staphylococcus aureus [29]", "result": "Active"}, {"measurement": "Activity", "setting": "Staphylococcus aureus [30]", "result": "Active"}, {"measurement": "Activity", "setting": "Staphylococcus aureus [31]", "result": "Active"}, {"measurement": "Activity", "setting": "Staphylococcus aureus [32]", "result": "Active"}, {"measurement": "Activity", "setting": "Staphylococcus aureus [33]", "result": "Active"}]}
